One may read the Kd as the equilibrium constant for the complex coming apart. Low readings indicate tighter binding, high ones weaker binding.

Type in all cases: binding
What all share (conditions): SD

The target in assay [1] is T1, RSL (Ralstonia solanacearum, UniProt A0A0S4TLR1).
T1 construct: gene E7Z57_08365
In words: biochemical.

The target of assay [2] is T2, RSL[4FW].
T2 construct: all seven Trp replaced by 4-fluorotryptophan (85% of protein 7/7 labeled); from pQE80L-RSL in E. coli BWEC47; homotrimer

Assay [3] has as its target T3, RSL[5FW].
T3 construct: all seven Trp replaced by 5-fluorotryptophan (86% of protein 7/7 labeled); from pQE80L-RSL in E. coli BWEC47; homotrimer

The target of assay [4] is T4, RSL[7FW].
T4 construct: all seven Trp replaced by 7-fluorotryptophan (84% of protein 7/7 labeled); from pQE80L-RSL in E. coli BWEC47; homotrimer

Turning to `CO[C@@H]1O[C@@H](C)[C@@H](O)[C@@H](O)[C@@H]1O` [αMeFuc, methyl α-L-fucopyranoside], the Kd in assay [1] came to 1.21 µM; in assay [2], 1.73 µM; in assay [3], 0.889 µM; in assay [4], 1.11 µM.

Turning to `CC(=O)N[C@H]1[C@H](O[C@H]2[C@@H](O)[C@@H](CO)OC(O)[C@@H]2O)O[C@H](CO)[C@@H](O[C@@H]2O[C@H](CO)[C@H](O)[C@H](O)[C@H]2O)[C@@H]1O[C@@H]1O[C@@H](C)[C@@H](O)[C@@H](O)[C@@H]1O` (stereo partly drawn) [LeX, lewis X tetrasaccharide, Galβ1–4[Fucα1–3]GlcNAcβ1–3Gal], the dissociation constant (Kd) turned out to be 32.5 µM in assay [1], 67.8 µM in assay [2], 52.4 µM in assay [3] and 52.1 µM in assay [4].

Regarding `CC(=O)N[C@H]1[C@H](O[C@H]2[C@@H](O)[C@@H](CO)OC(O)[C@@H]2O)O[C@H](CO)[C@@H](O[C@@H]2O[C@H](CO)[C@H](O)[C@H](O)[C@H]2O[C@@H]2O[C@@H](C)[C@@H](O)[C@@H](O)[C@@H]2O)[C@@H]1O` (stereo partly drawn) [HType2, blood group H type 2 antigen tetrasaccharide, Fucα1–2Galβ1–4GlcNAcβ1–3Gal], the Kd in assay [1] was 6.36 µM; in assay [2], 8.18 µM; in assay [3], 6.06 µM; in assay [4], 4.35 µM.
